Measurements published in US20040132969A1, “Antibodies, peptides, analogs and uses thereof” (priority 2000, published 2004).
“Also recorded” adds a separate entry of the source.

Legend:
[1] = system: chick chorioallantoic membrane (CAM); assay: CAM cell proliferation assay (DNA synthesis, methyl-[3H]thymidine), substance alone; assay type: in vivo
Protocol: Cell proliferation was measured using the chick chorioallantoic membrane (CAM) model as described previously (4, 29, 30).
Briefly, on day zero, fertile hens' eggs, are placed in an egg incubator 37.5° C. with pointed ends facing downwards. On day 3, using a 2 ml syringe with a 21G needle, 2 ml of albumen is removed and the eggs returned to the incubator. On day 4, each egg is punctured by a needle at the blunt end into the air space. A square of shell is then removed, causing the egg contents to drop into the space left by collapse of the air space at the end of the egg and the withdrawal of albumen. The volume of the space above the dropped CAM is approximately 7 ml. The square opening in the shell is covered with Sellotape (RTM). The eggs then have to be kept level in the incubator without tilting. On day 10, the surviving eggs are organised into groups of preferably no less than 10. Test and control samples are prepared and each egg receives 0.3 ml of sample injected through the Sellotape (RTM) onto the upper surface of the CAM.
The technique of removal of each CAM is simple but crucial to the rationale of achieving results expressed as total DPM per CAM. […]
The assay used is based on quantitative measurement of DNA synthesis in the CAM after exposure to control and test substances 18 h after application in liquid form to the whole “dropped” area of each CAM (4,29). […]

[2] = system: Lewis Lung Carcinoma (LLC) cells; assay: Pulmonary tumour metastasis model (Lewis lung carcinoma); assay type: in vivo, C57BL/6J mice; conditions: lung weight / metastatic episodes
Protocol: In the metastasis model, Lewis Lung Carcinoma (LLC) cells are injected into the tail of the mouse, lodge in the lungs, and grow and spread rapidly.
In more detail, groups of five C57BL/6J mice were injected with 5×10^4 LLC cells via the tail vein and were subsequently treated intraperitoneally with various concentrations of tested peptides or equal volume of diluent control. The treatment was initiated three days after tumor cell inoculation. Two weeks after the intravenous injection of tumor cells, the mice were sacrificed and necropsied. The lungs were removed, weighed and compared to untreated controls, and to normal lungs without tumors. Results were analyzed for statistical significance using the Student's t-test.

For LHADPDLGVLCPTGC [WTM34], the “maximum inhibition in the CAM assay” value ([1]; peptide alone, highest dose tested (20 micromoles)) was 60%, the “effect on cell proliferation relative to control” value ([1]; substance alone, across the range of concentrations tested) was “inherent inhibitory effect on cell stimulation; also recorded: inhibits cell proliferation and vessel formation in the CAM; also recorded: inhibitory effects” and the “effect in metastasis model (in words)” value [2] was “striking results”.
